According to US7390826B2, “Inhibitors of animal cell motility and growth” (The Board of Trustees of The University of Illinois, priority 2002, dated 2008):
pIC50: −log10 of the molar value. “Also recorded” adds a separate entry of the source. Like-named read-outs stand apart in the source and are kept apart here.

Assays:
[1] = test system: Madin-Darby canine kidney (MDCK) cell monolayers; assay: scrape-wound closure assay in MDCK cell monolayers; type: cell-based
Excerpt: A method of determining the ability of a compound to inhibit or accelerate cell motility is a scrape-wound closure assay using cultured mammalian epithelial cell monolayers. Mechanical scraping of the epithelial monolayer induces cell sheet migration into the resulting gap, a phenomenon characteristic of wounded epithelia and mechanistically related to normal epithelial movements during embryonic morphogenesis (A. Jacinto et al., Nat. Cell Biol, 3, E117 (2001)). Epithelial cell sheet migration in this method proceeds by a Rac- and phosphoinositide-dependent cell crawling mechanism resembling the motility of other animal cells that move as individuals rather than as cell sheets (G. Fenteany et al., Curr. Biol., 10, 831 (2000)).
Wound closure in MDCK cell monolayers primarily involves cell spreading and motility rather than proliferation based on observations and treatments that block cell growth without inhibiting closure. However, after closure is complete and the gap is covered, cell division is observed in the former wound area, presumably as part of a homeostatic mechanism to regain the original cell density (M. F. Olson et al., Science, 269, 1270 (1995)). Wound closure involves Rac- and phosphoinositide-dependent actin polymerization and protrusion-driven cell crawling behavior, where force generation for movement is distributed from the wound margin to several rows of cells behind the margin. Accordingly, this method is excellent for determining whether a compound affects cell motility.
Cell culture conditions: Madin-Darby canine kidney (MDCK) cells (American Type Culture Collection cell line CCL-34) were cultured in Minimum Essential Medium (with Earle's balanced salts, non-essential amino acids, L-glutamine and sodium pyruvate) supplemented with 10% newborn calf serum at 37° C. and 5% carbon dioxide (CO2). Main cultures were grown in either […] tissue culture flasks with medium changes every two days. When cultures were about 75% confluent, cells were passaged by rinsing twice with single strength phosphate buffered saline (PBS) and treating with a solution of 0.05% (w/v) trypsin/0.02% (w/v) ethylenediaminetetraacetic acid (EDTA) in PBS to detach cells from the flasks. After cells were detached, an equal volume of serum-containing medium was added to inhibit the trypsin and cell density was determined using a hemacytometer. Cells were replated following dilution in fresh medium on new tissue culture flasks for continued culture and multiwell tissue culture plates for experiments. No culture used exceeded 15 passages. Experimental cultures were grown in 12-, 24-, 48-, or 96-well tissue culture plates with medium changes every two days.
Wound closure assay and compound screening: MDCK cells were plated on multiwell tissue culture plates and cultured at 37° C. and 5% CO2 with medium changes every two days until confluent. When the cultures reached confluence, medium was changed again and all experimental treatments were begun a day later. Compounds were solubilized in dimethyl sulfoxide (DMSO) and added with fresh-medium to cell cultures at initial screening concentrations of 10 and 100 μM. Controls consisted of parallel wells to-which DMSO solvent carrier alone was added at the same concentration as that added with experimental treatments (not exceeding 0.1% (v/v)). DMSO alone at this concentration had no detectable effect on the cells. Monolayers were scraped 30 min later with a micropipette and ultramicro tips, allowing small wounds of consistent size to be generated. Progress of wound closure was examined at set time intervals following wounding by microscope, and inhibitory or acceleratory effects on wound closure relative to parallel controls noted. […] Digital images of the wounded monolayers were taken every 2 hours for 18 hours, and then at 30, 36, 54, 60, and 72 hours following wounding. The number of lamellipodia at the wound margin was also counted at these times. […]

MDCK cell wounds = assay: lamellipodial density at the margin of MDCK cell wounds; type: cell-based, canine; details: for Lamellipodial Density: 50 μM, mean ± SEM, * p<0.05 vs control
Description: Lamellipodial protrusion is known to drive most forms of animal cell crawling. At any given time in the migrating cell sheet, some cells are extending lamellipodia at the margin while others are not. […] Therefore, inhibition of cell sheet migration by compound 1 at least in part is attributed to reduced formation of lamellipodia at the would margin.
Lamellipodial density at the margin of MDCK cell wounds was determined under the following treatment conditions: 0.1% DMSO (control, n=25 wounded monolayers), 50 μM compound 1 (n=19), or 50 μM compound 11 (n=10). Lamellipodial density is the number of lamellipodial protrusions detected at the wound margin until closure for the times indicated divided by margin perimeter length. Values are mean±SEM.
Wound closure assay and compound screening: MDCK cells were plated on multiwell tissue culture plates and cultured at 37° C. and 5% CO2 with medium changes every two days until confluent. When the cultures reached confluence, medium was changed again and all experimental treatments were begun a day later. Compounds were solubilized in dimethyl sulfoxide (DMSO) and added with fresh-medium to cell cultures at initial screening concentrations of 10 and 100 μM. Controls consisted of parallel wells to-which DMSO solvent carrier alone was added at the same concentration as that added with experimental treatments (not exceeding 0.1% (v/v)). DMSO alone at this concentration had no detectable effect on the cells. Monolayers were scraped 30 min later with a micropipette and ultramicro tips, allowing small wounds of consistent size to be generated. Progress of wound closure was examined at set time intervals following wounding by microscope, and inhibitory or acceleratory effects on wound closure relative to parallel controls noted. […] Digital images of the wounded monolayers were taken every 2 hours for 18 hours, and then at 30, 36, 54, 60, and 72 hours following wounding. The number of lamellipodia at the wound margin was also counted at these times.

MDCK cell monolayers = assay: filamentous actin staining (rhodamine-phalloidin) of wounded MDCK monolayers; type: cell-based, canine; details: 50 μM; 12 hours after wounding
Description: Although formation of perimarginal actin bundles is not required for wound closure in this system, these actin bundles may help to distribute force in the first row of cells from actively protruding and moving cells to less-actively motile cells, thus making the closure process more regular and uniform than it would be otherwise.
Filamentous actin staining: MDCK cell mono-layers on glass coverslips-were fixed with 3.7% formaldehyde in PBS 12 hours after wounding. Cells were permeabilized with 0.1% (w/v) TRITONO X-100 in PBS, stained with 50 nM tetramethylrhodamine-conjugated phalloidin in PBS, and washed twice with PBS. Coverslips were mounted in 90% glycerol/10% ten strength PBS with 2 mg/mL p-phenylenediamine on glass slides and then examined by fluorescence microscopy.

## C/C=C/C(=O)N1C(=O)OC[C@@H]1Cc1ccccc1 [Compound 1, (4S)-3-((E)-2-butenoyl)-4-benzyl-2-oxazolidinone]
[1]; Canis lupus familiaris, MDCK, 12 h, read-out: calculated IC50 for inhibition of wound closure at 12 hours
  pIC50: 4.85
[1]; Canis lupus familiaris, MDCK, 12 h, read-out: log IC50±standard error of log IC50 (converted)
  IC50: 14 µM
[1]; MDCK cells, p<0.05
  inhibition of cell motility / epithelial cell sheet migration during wound closure: potent inhibitor of cell motility; also recorded: inhibits epithelial cell sheet migration during wound closure
[1]; serum-free
  inhibition of wound closure in serum-free conditions: inhibited wound closure to a similar degree relative to the control
[1]; upon changing to compound-free medium
  reversibility of inhibition of wound closure: reversible
MDCK cell wounds; 2 hours
  Lamellipodial Density: 0.341 ± 0.119
MDCK cell wounds; 4 hours
  Lamellipodial Density: 0.573 ± 0.194*
MDCK cell wounds; 6 hours
  Lamellipodial Density: 0.563 ± 0.142*
MDCK cell wounds; 8 hours
  Lamellipodial Density: 0.938 ± 0.184*
MDCK cell wounds; 10 hours
  Lamellipodial Density: 0.803 ± 0.203
MDCK cell wounds; 12 hours
  Lamellipodial Density: 0.520 ± 0.124*
MDCK cell wounds; versus control
  cells extending lamellipodia at the margin: significantly fewer cells extending lamellipodia at the margin
MDCK cell monolayers
  formation of filamentous actin bundles at wound margin: did not affect formation of filamentous actin bundles
